According to patent publication US11999727B2 (Tango Therapeutics, Inc., priority 2020, dated 2024):

Key:
PRMT5 [1] = molecular target: T1, PRMT5 (Homo sapiens, UniProt O14744); assay: PRMT5 biochemical IC50 assay with SAM as cofactor; conditions: PRMT5, SAM as cofactor; read-out: SAM IC50
T1 construct: purchased Viva (custom protein)

PRMT5 [2] = molecular target: T1, PRMT5; assay: PRMT5 biochemical IC50 assay with no cofactor; conditions: PRMT5, no cofactor; read-out: No Cofactor/rel IC50
Text: Table 1 indicates IC50 values (μM) against PRMT5 for exemplary compounds in the presence of SAM as cofactor, with no cofactor, and with MTA as cofactor, respectively (columns 4-6). […] Ki values can be calculated from the IC50 values as described in the Examples section. As detailed in the Examples section, for the assay performed in the presence of SAM, IC50=Ki×1.5 (Ki=IC50/1.5).

PRMT5 [3] = molecular target: T1, PRMT5; assay: PRMT5 biochemical IC50 assay with MTA as cofactor; conditions: PRMT5, MTA as cofactor; read-out: MTA IC50
[4] = tested on: HAP1 MTAP-intact cell line; assay: SDMA in-cell western assay, HAP1 MTAP-intact; format: cell-based; conditions: Homo sapiens, HAP1, SDMA in-cell western, HAP1 MTAP-intact; read-out: MTAP HAP1 intact IC50
In short: (§1)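 IC50 values come from SDMA signal quantified by in-cell western in two HAP1 lines, one with native MTAP levels and one lacking MTAP.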

[5] = tested on: HAP1 MTAP-deleted cell line; assay: SDMA in-cell western assay, HAP1 MTAP-deleted; format: cell-based; conditions: for IC50: Homo sapiens, HAP1, SDMA in-cell western, HAP1 MTAP-deleted; for MTAP intact/deleted ratio: IC50 ratio HAP1 MTAP-intact / HAP1 MTAP-deleted, SDMA in-cell western
In short: as §1

[6] = tested on: HAP1 MTAP-deleted cell line; assay: Viability assay, MTAP-deleted cell line; format: cell-based; conditions: Homo sapiens, HAP1, viability assay, read-out: HAP1 MTAP deleted viability
Text: Table 1 additionally indicates IC50 values in a viability assay for the MTAP-deleted cell line (column 10), indicating the effect of treatment with compound on cell survival.

[7] = read-out: HAP1 MTAP deleted IC50
[8] = read-out: HAP 1 MTAP deleted IC50

T1 sequence (O14744 whole entry): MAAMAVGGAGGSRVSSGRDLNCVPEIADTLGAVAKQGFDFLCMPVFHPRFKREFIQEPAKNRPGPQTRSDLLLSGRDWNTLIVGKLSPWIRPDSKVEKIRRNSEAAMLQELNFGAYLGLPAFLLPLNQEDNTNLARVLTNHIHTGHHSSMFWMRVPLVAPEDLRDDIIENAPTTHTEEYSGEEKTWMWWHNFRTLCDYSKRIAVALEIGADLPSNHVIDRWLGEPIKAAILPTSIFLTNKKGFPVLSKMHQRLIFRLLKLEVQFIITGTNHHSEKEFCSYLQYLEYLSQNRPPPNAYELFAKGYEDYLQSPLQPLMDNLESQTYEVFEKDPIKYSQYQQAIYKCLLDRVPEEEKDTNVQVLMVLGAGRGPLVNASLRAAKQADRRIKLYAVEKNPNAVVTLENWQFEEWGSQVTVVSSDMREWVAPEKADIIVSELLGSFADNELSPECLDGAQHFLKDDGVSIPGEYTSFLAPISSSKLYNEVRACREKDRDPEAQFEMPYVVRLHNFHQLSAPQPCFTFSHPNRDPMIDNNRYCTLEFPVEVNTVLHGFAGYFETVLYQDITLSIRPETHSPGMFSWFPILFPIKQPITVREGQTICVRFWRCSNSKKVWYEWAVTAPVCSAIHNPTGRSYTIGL
T1 sequence (Q9BQA1 whole entry partner): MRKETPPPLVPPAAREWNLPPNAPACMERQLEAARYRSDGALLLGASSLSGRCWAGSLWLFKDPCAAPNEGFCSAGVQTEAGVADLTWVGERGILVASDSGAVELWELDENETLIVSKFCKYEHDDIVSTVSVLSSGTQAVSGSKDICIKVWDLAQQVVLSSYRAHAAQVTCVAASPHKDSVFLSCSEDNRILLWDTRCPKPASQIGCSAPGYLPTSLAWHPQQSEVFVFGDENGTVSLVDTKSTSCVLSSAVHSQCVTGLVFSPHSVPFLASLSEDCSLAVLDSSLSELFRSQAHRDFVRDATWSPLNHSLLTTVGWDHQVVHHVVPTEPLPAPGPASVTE

| IC50 (PRMT5 [1]) | IC50 (PRMT5 [2]) | IC50 (PRMT5 [3]) | IC50 [4] | IC50 [5, 7] | IC50 [5, 8] | SMILES | MTAP intact/deleted ratio [5] | IC50 ([6]; HAP1 MTAP-deleted) | IC50 ([6]; MTAP-deleted cell line) |
| --- | --- | --- | --- | --- | --- | --- | --- | --- | --- |
| 50 to 500 nM | 50 to 500 nM | 50 to 500 nM | > 1000 nM | < 100 nM |  | CCc1cc(NC(=O)C(=O)N2C[C@@H](C)CC[C@@H]2c2ccc3c(c2)OCCN3)cnc1N (racemic) [Compound 870, N-(6-amino-5-ethyl-3-pyridyl)-2-[(2R,5S)-2-(3,4-dihydro-2H-1,4-benzoxazin-7-yl)-5-methyl-1-piperidyl]-2-oxo-acetamide] | A (an IC50 ratio greater than or equal to 10 fold) | < 1000 nM |  |
| > 500 nM | 50 to 500 nM | 50 to 500 nM | > 1000 nM | 100 to 1000 nM |  | C[C@@H]1CC[C@@H](c2ccc(F)cc2)N(C(=O)C(=O)Nc2cnc(N)c(C(F)(F)F)c2)C1 (racemic) [Compound 872, N-[6-Amino-5-(trifluoromethyl)-3-pyridyl]-2-[(2S,5R)-2-(4-fluorophenyl)-5-methyl-1-piperidyl]-2-oxo-acetamide] | A (an IC50 ratio greater than or equal to 10 fold) | 1000 to 10000 nM |  |
| > 500 nM | > 500 nM | 50 to 500 nM | > 1000 nM | 100 to 1000 nM |  | Cc1ccc([C@@H]2CC[C@H](C)CN2C(=O)C(=O)Nc2cncc(C(N)=O)c2)nc1 (racemic) [Compound 880, 5-[[2-[(2R,5R)-5-Methyl-2-(5-methyl-2-pyridyl)-1-piperidyl]-2-oxo-acetyl]amino]pyridine-3-carboxamide] | A (an IC50 ratio greater than or equal to 10 fold) | > 10000 nM |  |
| > 500 nM | > 500 nM | 50 to 500 nM | > 1000 nM |  | > 1000 nM | COc1ncc(NC(=O)C(=O)N2C[C@@H](C)CC[C@H]2c2ccc(C)cn2)cc1C(N)=O (racemic) [Compound 886, 2-Methoxy-5-[[2-[(2R,5R)-5-methyl-2-(5-methyl-2-pyridyl)-1-piperidyl]-2-oxo-acetyl]amino]pyridine-3-carboxamide] | B (an IC50 ratio greater than or equal to 3 fold but lower than 10 fold) |  | > 10000 nM |
| 50 to 500 nM | 50 to 500 nM | 50 to 500 nM | > 1000 nM |  | < 100 nM | CNc1ccc([C@@H]2CC[C@@H](C)CN2C(=O)C(=O)Nc2cncc(C(N)=O)c2)nc1 (racemic) [Compound 907, 5-[[2-[(2R,5S)-5-methyl-2-[5-(methylamino)-2-pyridyl]-1-piperidyl]-2-oxo-acetyl]amino]pyridine-3-carboxamide] | A (an IC50 ratio greater than or equal to 10 fold) |  | 1000 to 10000 nM |
| > 500 nM | > 500 nM | > 500 nM | > 1000 nM |  | > 1000 nM | CCc1cc(NC(=O)C(=O)N2C[C@H](C)CC[C@H]2c2cccc3[nH]ncc23)cnc1N (racemic) [Compound 911, N-(6-amino-5-ethyl-3-pyridyl)-2-[(2S,5R)-2-(1H-indazol-4-yl)-5-methyl-1-piperidyl]-2-oxo-acetamide] | C (an IC50 ratio of less than 3 fold) |  | > 10000 nM |
| 50 to 500 nM | 50 to 500 nM | 50 to 500 nM | 100 to 1000 nM |  | < 100 nM | Cc1cc(NC(=O)C(=O)N2C[C@H](C)CC[C@H]2c2ccc3nn(C)cc3c2)cnc1N (racemic) [Compound 912] | A (an IC50 ratio greater than or equal to 10 fold) |  | < 1000 nM |
| > 500 nM | 50 to 500 nM | 50 to 500 nM | > 1000 nM |  | < 100 nM | CCc1cc(NC(=O)C(=O)N2C[C@@H](C)CC[C@@H]2c2cnc3c(c2)CCC(=O)N3)cnc1N (racemic) [Compound 916, rac-N-(6-Amino-5-ethyl-3-pyridyl)-2-[(2S,5R)-5-methyl-2-(7-oxo-6,8-dihydro-5H-1,8-naphthyridin-3-yl)-1-piperidyl]-2-oxo-acetamide] | A (an IC50 ratio greater than or equal to 10 fold) |  | 1000 to 10000 nM |

Further lines, the molecule ahead of its results:

| SMILES | IC50 (PRMT5 [1]) | IC50 (PRMT5 [2]) | IC50 (PRMT5 [3]) | IC50 [4] | IC50 [5, 7] | IC50 [5, 8] | MTAP intact/deleted ratio [5] | IC50 ([6]; HAP1 MTAP-deleted) | IC50 ([6]; MTAP-deleted cell line) |
| --- | --- | --- | --- | --- | --- | --- | --- | --- | --- |
| COc1ncc(NC(=O)C(=O)N2C[C@@H](C)CC[C@@H]2c2ccc3c(c2)OCCN3)cc1C(N)=O (racemic) [Compound 869, 5-[[2-[(2R,5S)-2-(3,4-dihydro-2H-1,4-benzoxazin-7-yl)-5-methyl-1-piperidyl]-2-oxo-acetyl]amino]-2-methoxy-pyridine-3-carboxamide] | 50 to 500 nM | 50 to 500 nM | 50 to 500 nM | > 1000 nM | < 100 nM |  | A (an IC50 ratio greater than or equal to 10 fold) | < 1000 nM |  |
| Cc1cc(NC(=O)C(=O)N2C[C@@H](C)CC(F)(F)[C@@H]2c2ccc(F)cc2)cnc1N (racemic) [Compound 871, N-(6-amino-5-methyl-3-pyridyl)-2-[(2S,5S)-3,3-difluoro-2-(4-fluorophenyl)-5-methyl-1-piperidyl]-2-oxo-acetamide] | 50 to 500 nM | 50 to 500 nM | < 50 nM | 100 to 1000 nM | < 100 nM |  | B (an IC50 ratio greater than or equal to 3 fold but lower than 10 fold) | 1000 to 10000 nM |  |
| C[C@@H]1C[C@H](F)[C@@H](c2ccc(F)cc2)N(C(=O)C(=O)Nc2cncc(C(N)=O)c2)C1 (racemic) [Compound 879, 5-[[2-[(2R,3S,5R)-3-fluoro-2-(4-fluorophenyl)-5-methyl-1-piperidyl]-2-oxo-acetyl]amino]pyridine-3-carboxamide] | 50 to 500 nM | 50 to 500 nM | < 50 nM | > 1000 nM | 100 to 1000 nM |  | A (an IC50 ratio greater than or equal to 10 fold) | 1000 to 10000 nM |  |
| C[C@@H]1CC[C@@H](c2cnc3c(c2)CCC(=O)N3)N(C(=O)C(=O)Nc2cncc(C(N)=O)c2)C1 (racemic) [Compound 888, rac-5-[[2-[(2S,5R)-5-Methyl-2-(7-oxo-6,8-dihydro-5H-1,8-naphthyridin-3-yl)-1-piperidyl]-2-oxo-acetyl]amino]pyridine-3-carboxamide] | 50 to 500 nM | 50 to 500 nM | 50 to 500 nM | > 1000 nM |  | > 1000 nM | C (an IC50 ratio of less than 3 fold) |  | > 10000 nM |
| C[C@@H]1CC[C@@H](c2ccc(F)cc2)N(C(=O)C(=O)Nc2cnc(OC(F)F)c(C(N)=O)c2)C1 (racemic) [Compound 889, 2-(difluoromethoxy)-5-(2-(2-(4-fluorophenyl)-5-methylpiperidin-1-yl)-2-oxoacetamido)nicotinamide] | > 500 nM | 50 to 500 nM | 50 to 500 nM | > 1000 nM |  | > 1000 nM | B (an IC50 ratio greater than or equal to 3 fold but lower than 10 fold) |  | > 10000 nM |
| COc1ncc(NC(=O)C(=O)N2C[C@@H](C)CC[C@@H]2c2cnc3c(c2)CCC(=O)N3)cc1C(N)=O (racemic) [Compound 891, rac-2-Methoxy-5-[[2-[(2S,5R)-5-methyl-2-(7-oxo-6,8-dihydro-5H-1,8-naphthyridin-3-yl)-1-piperidyl]-2-oxo-acetyl]amino]pyridine-3-carboxamide] | 50 to 500 nM | 50 to 500 nM | 50 to 500 nM | > 1000 nM |  | 100 to 1000 nM | A (an IC50 ratio greater than or equal to 10 fold) |  | > 10000 nM |
| C[C@@H]1C[C@@H](F)[C@@H](c2ccc(F)cc2)N(C(=O)C(=O)Nc2cncc(C(N)=O)c2)C1 (racemic) [Compound 898, 5-[[2-[(2R,3R,5R)-3-fluoro-2-(4-fluorophenyl)-5-methyl-1-piperidyl]-2-oxo-acetyl]amino]pyridine-3-carboxamide] | > 500 nM | 50 to 500 nM | 50 to 500 nM | > 1000 nM |  | 100 to 1000 nM | A (an IC50 ratio greater than or equal to 10 fold) |  | 1000 to 10000 nM |
| Cc1cc(NC(=O)C(=O)N2CC[C@H](N(C)C)C[C@H]2c2ccccc2)cnc1N (racemic) [Compound 906] | 50 to 500 nM | > 500 nM | 50 to 500 nM | > 1000 nM |  | > 1000 nM | C (an IC50 ratio of less than 3 fold) |  | > 10000 nM |
| Cc1cc(NC(=O)C(=O)N2C[C@H](C)CC[C@H]2c2ccc3sc(N)nc3c2)cnc1C (racemic) [Compound 920, 2-[(2R,5S)-2-(2-amino-1,3-benzothiazol-5-yl)-5-methyl-1-piperidyl]-N-(5,6-dimethyl-3-pyridyl)-2-oxo-acetamide] | 50 to 500 nM | 50 to 500 nM | 50 to 500 nM | > 1000 nM |  | < 100 nM | A (an IC50 ratio greater than or equal to 10 fold) |  | 1000 to 10000 nM |
